System: KRAS patient-derived spheroids with HUVEC/MSC, viability
Assay: Anticancer human tumor 519858-162-T-J1-PDC patient-derived colon adenocarcinoma cell line growth inhibition [KRAS2]
Details: for viability, T/C: stronger effect = lower value
Outline: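 Combination screen of spheroid viability in tumor-cell co-cultures with endothelial (HUVEC) and mesenchymal stem cell stroma. Each agent was tested in half-log dilutions, topping at clinical Cmax or at 10 microM without a known Cmax.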

[1] = curve of first compound, second compound 0.1 µM
[2] = curve of first compound, second compound 0.316 µM
[3] = curve of first compound, second compound 1 µM
[4] = curve of first compound, second compound 3.16 µM
[5] = curve of first compound, second compound 10 µM
[6] = second compound 0.1 µM, first compound 0.0001 µM
[7] = second compound 0.1 µM, first compound 0.000316 µM
[8] = second compound 0.1 µM, first compound 0.001 µM
[9] = second compound 0.1 µM, first compound 0.00316 µM
[10] = second compound 0.1 µM, first compound 0.01 µM
[11] = second compound 0.1 µM, first compound 0.0316 µM
[12] = second compound 0.316 µM, first compound 0.0001 µM
[13] = second compound 0.316 µM, first compound 0.000316 µM
[14] = second compound 0.316 µM, first compound 0.001 µM
[15] = second compound 0.316 µM, first compound 0.00316 µM
[16] = second compound 0.316 µM, first compound 0.01 µM
[17] = second compound 0.316 µM, first compound 0.0316 µM
[18] = second compound 1 µM, first compound 0.0001 µM
[19] = second compound 1 µM, first compound 0.000316 µM
[20] = second compound 1 µM, first compound 0.001 µM
[21] = second compound 1 µM, first compound 0.00316 µM
[22] = second compound 1 µM, first compound 0.01 µM
[23] = second compound 1 µM, first compound 0.0316 µM
[24] = second compound 3.16 µM, first compound 0.0001 µM
[25] = second compound 3.16 µM, first compound 0.000316 µM
[26] = second compound 3.16 µM, first compound 0.001 µM
[27] = second compound 3.16 µM, first compound 0.00316 µM
[28] = second compound 3.16 µM, first compound 0.01 µM
[29] = second compound 3.16 µM, first compound 0.0316 µM
[30] = second compound 10 µM, first compound 0.0001 µM
[31] = second compound 10 µM, first compound 0.000316 µM
[32] = second compound 10 µM, first compound 0.001 µM
[33] = second compound 10 µM, first compound 0.00316 µM
[34] = second compound 10 µM, first compound 0.01 µM
[35] = second compound 10 µM, first compound 0.0316 µM
[36] = second compound 0.1 µM, first compound 0.1 µM
[37] = second compound 0.316 µM, first compound 0.1 µM
[38] = second compound 1 µM, first compound 0.1 µM
[39] = second compound 3.16 µM, first compound 0.1 µM
[40] = curve of first compound, second compound 0.0316 µM
[41] = second compound 0.0316 µM, first compound 0.0316 µM
[42] = second compound 0.0316 µM, first compound 0.1 µM
[43] = second compound 0.0316 µM, first compound 0.316 µM
[44] = second compound 0.0316 µM, first compound 1 µM
[45] = second compound 0.0316 µM, first compound 3.16 µM
[46] = second compound 0.0316 µM, first compound 10 µM
[47] = second compound 0.1 µM, first compound 0.316 µM
[48] = second compound 0.1 µM, first compound 1 µM
[49] = second compound 0.1 µM, first compound 3.16 µM
[50] = second compound 0.1 µM, first compound 10 µM
[51] = second compound 0.316 µM, first compound 0.316 µM
[52] = second compound 0.316 µM, first compound 1 µM
[53] = second compound 0.316 µM, first compound 3.16 µM
[54] = second compound 0.316 µM, first compound 10 µM
[55] = second compound 1 µM, first compound 0.316 µM
[56] = second compound 1 µM, first compound 1 µM
[57] = second compound 1 µM, first compound 3.16 µM
[58] = second compound 1 µM, first compound 10 µM
[59] = second compound 3.16 µM, first compound 0.316 µM
[60] = second compound 3.16 µM, first compound 1 µM
[61] = second compound 3.16 µM, first compound 3.16 µM
[62] = second compound 3.16 µM, first compound 10 µM
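Further: compound exposure lasted seven days before readout.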
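Wherever viability, T/C is given: 100% = DMSO vehicle control viability.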

SMILES: CC(=O)Nc1cccc(-n2c(=O)n(C3CC3)c(=O)c3c(Nc4ccc(I)cc4F)n(C)c(=O)c(C)c32)c1 + CNCc1ccccc1-c1csc(C(C)Nc2nc(C)nc3cc(OC)c(OC)cc23)c1
- IC50 [1]: 5.36 nM
- IC50 [2]: 1.38 nM
- IC50 [3]: 0.356 nM
- IC50 [4]: < 0.1 nM
- IC50 [5]: < 0.1 nM
- viability, T/C [6]: 70.2%
- viability, T/C [7]: 73.4%
- viability, T/C [8]: 60.1%
- viability, T/C [9]: 67.2%
- viability, T/C [10]: 29.7%
- viability, T/C [11]: 13.9%
- viability, T/C [12]: 50.7%
- viability, T/C [13]: 79.1%
- viability, T/C [14]: 47.9%
- viability, T/C [15]: 36.4%
- viability, T/C [16]: 30.9%
- viability, T/C [17]: 12.2%
- viability, T/C [18]: 63.3%
- viability, T/C [19]: 50.7%
- viability, T/C [20]: 37.9%
- viability, T/C [21]: 30.6%
- viability, T/C [22]: 16.5%
- viability, T/C [23]: 6.33%
- viability, T/C [24]: 41%
- viability, T/C [25]: 30.4%
- viability, T/C [26]: 17.7%
- viability, T/C [27]: 3.54%
- viability, T/C [28]: 1.47%
- viability, T/C [29]: 1.15%
- viability, T/C [30]: 0.28%
- viability, T/C [31]: 0.38%
- viability, T/C [32]: 0.25%
- viability, T/C [33]: 0.25%
- viability, T/C [34]: 0.22%
- viability, T/C [35]: 0.31%

SMILES: CCNC(=O)CC1N=C(c2ccc(Cl)cc2)c2cc(OC)ccc2-n2c(C)nnc21 (configuration not stated)
- viability, T/C (compound 1 µM): 52.7% [middle of 5 runs]
- IC50 (curve of compound): 1.08 µM [middle of 4 runs]

SMILES: CC(=O)Nc1cccc(-n2c(=O)n(C3CC3)c(=O)c3c(Nc4ccc(I)cc4F)n(C)c(=O)c(C)c32)c1 + C=CC(=O)N1CCN(c2nc(=O)n(-c3c(C)ccnc3C(C)C)c3nc(-c4c(O)cccc4F)c(F)cc23)C(C)C1
- IC50 [1]: 6.3 nM
- IC50 [2]: 5.48 nM
- IC50 [3]: 7.54 nM
- IC50 [4]: 7.41 nM
- IC50 [5]: 4.51 nM
- viability, T/C [6]: 104%
- viability, T/C [7]: 99.5%
- viability, T/C [8]: 66.3%
- viability, T/C [9]: 83.8%
- viability, T/C [10]: 28.9%
- viability, T/C [11]: 20%
- viability, T/C [12]: 85.3%
- viability, T/C [13]: 97.7%
- viability, T/C [14]: 93.4%
- viability, T/C [15]: 59.4%
- viability, T/C [16]: 40.7%
- viability, T/C [17]: 23.8%
- viability, T/C [18]: 96.6%
- viability, T/C [19]: 67.9%
- viability, T/C [20]: 79.7%
- viability, T/C [21]: 74.9%
- viability, T/C [22]: 41.9%
- viability, T/C [23]: 25.1%
- viability, T/C [24]: 74.2%
- viability, T/C [25]: 79%
- viability, T/C [26]: 76.3%
- viability, T/C [27]: 102%
- viability, T/C [28]: 38.4%
- viability, T/C [29]: 19.1%
- viability, T/C [30]: 89.7%
- viability, T/C [31]: 90.5%
- viability, T/C [32]: 107%
- viability, T/C [33]: 61.5%
- viability, T/C [34]: 31%
- viability, T/C [35]: 17.4%

SMILES: CC(C)n1nc(-c2ccc3oc(N)nc3c2)c2c(N)ncnc21 + COc1cc2nc(C)nc(NC(C)c3cc(N)cc(C(F)(F)F)c3)c2cc1OC1CCOC1
- IC50 [1]: > 100 nM
- IC50 [2]: > 100 nM
- IC50 [3]: > 100 nM
- IC50 [4]: > 100 nM
- IC50 [5]: 4.58 nM
- viability, T/C [7]: 107%
- viability, T/C [8]: 93.9%
- viability, T/C [9]: 79.3%
- viability, T/C [10]: 73%
- viability, T/C [11]: 70.9%
- viability, T/C [36]: 74.9%
- viability, T/C [13]: 89.1%
- viability, T/C [14]: 99.8%
- viability, T/C [15]: 90.2%
- viability, T/C [16]: 84.9%
- viability, T/C [17]: 73.5%
- viability, T/C [37]: 72.2%
- viability, T/C [19]: 89.9%
- viability, T/C [20]: 84.8%
- viability, T/C [21]: 75.5%
- viability, T/C [22]: 67.8%
- viability, T/C [23]: 65.6%
- viability, T/C [38]: 77.4%
- viability, T/C [25]: 117%
- viability, T/C [26]: 84.2%
- viability, T/C [27]: 93.4%
- viability, T/C [28]: 72.5%
- viability, T/C [29]: 60.2%
- viability, T/C [39]: 84.7%
- viability, T/C [31]: 78.1%
- viability, T/C [32]: 71.7%
- viability, T/C [33]: 54.3%
- viability, T/C [34]: 42.6%
- viability, T/C [35]: 30.2%
- viability, T/C (second compound 10 µM, first compound 0.1 µM): 45.6%

SMILES: COC(=O)c1ccc2c(C(=Nc3ccc(N(C)C(=O)CN4CCN(C)CC4)cc3)c3ccccc3)c(O)[nH]c2c1 + C=CC(=O)N1CCN(c2nc(OCC3CCCN3C)nc3c2CCN(c2cccc4cccc(C)c24)C3)CC1CC#N
- IC50 [40]: > 10000 nM
- IC50 [1]: > 10000 nM
- IC50 [2]: > 10000 nM
- IC50 [3]: > 10000 nM
- IC50 [4]: 4840 nM
- viability, T/C [41]: 97.4%
- viability, T/C [42]: 113%
- viability, T/C [43]: 86.8%
- viability, T/C [44]: 97.8%
- viability, T/C [45]: 76.4%
- viability, T/C [46]: 106%
- viability, T/C [11]: 89%
- viability, T/C [36]: 89.5%
- viability, T/C [47]: 65.8%
- viability, T/C [48]: 68.4%
- viability, T/C [49]: 120%
- viability, T/C [50]: 68.7%
- viability, T/C [17]: 90.4%
- viability, T/C [37]: 73.5%
- viability, T/C [51]: 59.7%
- viability, T/C [52]: 66.7%
- viability, T/C [53]: 68.9%
- viability, T/C [54]: 76.9%
- viability, T/C [23]: 61.9%
- viability, T/C [38]: 74.7%
- viability, T/C [55]: 67.5%
- viability, T/C [56]: 57.1%
- viability, T/C [57]: 81.7%
- viability, T/C [58]: 147%
- viability, T/C [29]: 60.5%
- viability, T/C [39]: 75.1%
- viability, T/C [59]: 68.6%
- viability, T/C [60]: 109%
- viability, T/C [61]: 82.2%
- viability, T/C [62]: 0.39%

SMILES: CC(C)NCC(C(=O)N1CCN(c2ncnc3c2C(C)CC3O)CC1)c1ccc(Cl)cc1 (configuration not stated) + C=CC(=O)N1CCN(c2nc(OCC3CCCN3C)nc3c2CCN(c2cccc4cccc(C)c24)C3)CC1CC#N
- IC50 [40]: > 10000 nM
- IC50 [1]: > 10000 nM
- IC50 [2]: > 10000 nM
- IC50 [3]: > 10000 nM
- IC50 [4]: 1930 nM
- viability, T/C [41]: 84.8%
- viability, T/C [42]: 84.9%
- viability, T/C [43]: 79.5%
- viability, T/C [44]: 85.4%
- viability, T/C [45]: 85.9%
- viability, T/C [46]: 77.5%
- viability, T/C [11]: 95.2%
- viability, T/C [36]: 91.6%
- viability, T/C [47]: 78.4%
- viability, T/C [48]: 78%
- viability, T/C [49]: 90.3%
- viability, T/C [50]: 74.6%
- viability, T/C [17]: 64.7%
- viability, T/C [37]: 84.2%
- viability, T/C [51]: 75.5%
- viability, T/C [52]: 90%
- viability, T/C [53]: 82.5%
- viability, T/C [54]: 87%
- viability, T/C [23]: 72%
- viability, T/C [38]: 72.2%
- viability, T/C [55]: 48.3%
- viability, T/C [56]: 70.5%
- viability, T/C [57]: 81.9%
- viability, T/C [58]: 83.3%
- viability, T/C [29]: 70.9%
- viability, T/C [39]: 55.8%
- viability, T/C [59]: 80.8%
- viability, T/C [60]: 55.1%
- viability, T/C [61]: 50.7%
- viability, T/C [62]: 41.5%

Reference: PubChem BioAssay AID1963872 (Molecular Pharmacology Branch, DTP, NCI, 2024)
